In patent publication US20060235013A1, “Tricyclic azole derivatives” (priority 2005, published 2006):

Tests used:
[1] = molecular target: T1, Aurora A kinase (Homo sapiens, UniProt O14965); experiment: IC50 determination for inhibitors of Aurora A (ELISA-type kinase assay, GST-Histone H3 substrate); type: biochemical; conditions: mutant Aurora A kinase, 30 μM ATP, 40 minutes, read-out: IC50 Aurora A kinase inhibition
T1 sequence (O14965 1-403): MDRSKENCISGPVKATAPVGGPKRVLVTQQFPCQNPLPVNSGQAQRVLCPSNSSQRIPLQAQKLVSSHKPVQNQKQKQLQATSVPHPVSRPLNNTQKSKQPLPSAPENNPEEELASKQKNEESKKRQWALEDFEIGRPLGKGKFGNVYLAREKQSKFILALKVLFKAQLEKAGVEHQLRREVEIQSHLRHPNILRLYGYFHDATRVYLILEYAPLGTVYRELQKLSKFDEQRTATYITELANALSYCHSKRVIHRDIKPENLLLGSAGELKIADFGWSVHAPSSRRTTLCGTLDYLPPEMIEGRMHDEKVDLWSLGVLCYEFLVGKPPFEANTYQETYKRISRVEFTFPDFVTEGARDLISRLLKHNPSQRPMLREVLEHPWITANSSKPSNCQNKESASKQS
Experimental: IC50 Determination for Inhibitors of Aurora A
Aurora A is a serine threonine kinase involved in spindle assembly and chromosome segregation.
The assay is a typically ELISA-type assay where substrate (GST-Histone H3) is coupled to the assay-plate and is phosphorylated by the kinase. Phosphorylation is detected by a mouse anti-Phosphopeptid mAb and an HRP-labeled anti-mouse pAb. The assay is validated for IC50-determination.
Kinase activities were measured by Enzyme-Linked Immunosorbent Assay (ELISA): Maxisorp 384-well plates (Nunc) were coated with recombinant fusion protein comprising residues 1-15 of HistoneH3 fused to the N-terminus of Glutathione-S-Transferase. Plates were then blocked with a solution of 1 mg/mL I-block (a highly purified form of casein, Tropix cat. no. T2015) in phosphate-buffered saline. Kinase reactions were carried out in the wells of the ELISA plate by combining an appropriate amount of mutant Aurora A kinase with test compound and 30 μM ATP. The reaction buffer was 10× Kinase Buffer (Cell Signaling cat. no. 9802) supplemented with 1 μg/mL I-block. Reactions were stopped after 40 minutes by addition of 25 mM EDTA. After washing, substrate phosphorylation was detected by addition of anti-phospho-Histone H3 (Ser 10) 6G3 mAb (Cell Signaling cat. no. 9706) and sheep anti-mouse pAb-HRP (Amersham cat. no. NA931V), followed by colorimetric development with TMB (3,3′,5,5′-tetramethylbenzidine from Kirkegaard & Perry Laboratories). After readout of the adsorbance, IC50 values were calculated using a non-linear curve fit (XLfit software (ID Business Solution Ltd., Guilford, Surrey, UK)).

[2] = tested on: HCT 116 cells; experiment: Viability assay in HCT 116 cells (CellTiter-Glo Luminescent Cell Viability Assay); type: cell-based; conditions: HCT 116 human colon carcinoma cells, 5 days (120 h) incubation, ATP luminescence
Experimental: Viability Assay in HCT 116 Cells
A viability assay was performed using the CellTiter-Glo® Luminescent Cell Viability Assay (see Promega Corporation's Technical Bulletin No. 288, pp. 1-11 [revised February 2004] which is hereby incorporated by reference in its entirety). This assay is a homogeneous method of determining the number of viable cells in culture based on quantitation of the ATP present, an indicator of metabolically active cells. The assay is designed for use with multiwell formats, making it ideal for automated high-throughput screening (HTS), cell proliferation and cytotoxicity assays. The homogenous assay procedure involves adding a single reagent (containing luciferase, luciferan substrate, and buffer) directly to cells cultured in serum-supplemented medium. Cell washing, removal of medium and multiple pipetting steps are not required. The system detects as few as 15 cells/well in a 384-well format in 10 minutes after adding reagent and mixing.
The homogeneous “add-mix-measure” format results in cell lysis and generation of a luminescent signal proportional to the amount of ATP present. The amount of ATP is directly proportional to the number of cells present in culture. The above-referenced assay generates a “glow-type” luminescent signal, produced by the luciferase reaction, which has a half-life generally greater than five hours, depending on cell type and medium used. The extended half-life eliminates the need to use reagent injectors and provides flexibility for continuous or batch mode processing of multiple plates. The unique homogeneous format avoids errors that may be introduced by other ATP measurement methods that require multiple steps.
HCT 116 cells (human colon carcinoma, ATCC-No. CCl-247) were cultivated in RPMI 1640 medium with GlutaMAX™ I (cell culture media that contains L-Alanyl-L-Glutamine [a stabilized a form/source of L-Glutamine] from Invitrogen, Cat-No. 61870-010), 2.5% Fetal Calf Serum (FCS, Sigma Cat-No. F4135 (FBS)); 100 Units/ml penicillin/100 μg/ml streptomycin (=Pen/Strep from Invitrogen Cat. No. 15140). For the assay the cells were seeded in 384 well plates, 1000 cells per well, in the same medium. The next day the test compounds were added in various concentrations ranging from 30 μM to 0.0015 μM (10 concentrations, 1:3 diluted). After 5 days the viability assay was done according to the instructions of the manufacturer. In brief: the cell-plate was equilibrated to room temperature for approximately 30 minutes and then reagent (containing luciferase, luciferan substrate, and buffer) was added. The contents were carefully mixed for 15 minutes to induce cell lysis. After 45 minutes the luminescent signal was measured in Victor 2, (scanning multiwell spectrophotometer, Wallac).
Medium: RPMI 1640 with cell culture media containing L-Alanyl-L-Glutamine [GlutaMAX™ I (Invitrogen, Cat-No. 61870)], 5% FCS (Sigma Cat.-No. F4135), Pen/Strep (Invitrogen, Cat No. 15140).
HCT116 (ATCC-No. CCl-247): 1000 cells in 60 μl per well of 384 well plate (Greiner 781098, μClear-plate white)
After seeding incubate plates 24 h at 37° C., 5% CO2
2nd. Day: Induction (Treatment with Compounds, 10 Concentrations):
In order to achieve a final concentration of 30 μM as highest concentration 3.5 μl of 10 mM compound stock solution were added directly to 163 μl media. Then step (d) of the dilution procedure described below, was followed.
In order to achieve the second highest to the lowest concentrations, a serial dilution with dilution steps of 1:3 was followed according to the procedure (a-d) as described here below:
(a) for the second highest concentration add 10 μl of 10 mM stock solution of compound to 20 μl dimethylsulfoxide (DMSO)
(b) dilute 8×1:3 (always 10 μl to 20 μl DMSO) in this DMSO dilution row (results in 9 wells with concentrations from 3333.3 μM to 0.51 μM)
(c) dilute each concentration 1: 47.6 (3.5 μl compound dilution to 163 μl media)
(d) add 10 μl of every concentration to 60 μl media in the cell plate […]

CCN1C(=O)C(C)(C)c2cc3nc(-c4n[nH]c5c4CN(S(=O)(=O)c4ccc(F)cc4)CC5)[nH]c3cc21 [Example 17, 5-Ethyl-2-[5-(4-fluoro-benzenesulfonyl)-4,5,6,7-tetrahydro-1H-pyrazolo[4,3-c]pyridin-3-yl]-7,7-dimethyl-5,7-dihydro-3H-imidazo[4,5-f]indol-6-one]
IC50 [1]: 14 nM | IC50 [2]: 100 to 2000 nM

CCN1C(=O)C(C)(C)c2cc3nc(-c4n[nH]c5c4CN(C(=O)c4ccc(F)cc4)CC5)[nH]c3cc21 [Example 16, 5-Ethyl-2-[5-(4-fluoro-benzoyl)-4,5,6,7-tetrahydro-1H-pyrazolo[4,3-c]pyridin-3-yl]-7,7-dimethyl-5,7-dihydro-3H-imidazo[4,5-f]indol-6-one]
IC50 [1]: 55 nM | IC50 [2]: 100 to 2000 nM

CC(C)N1C(=O)C(C)(C)c2cc3nc(-c4n[nH]c5c4CCCC5)[nH]c3cc21 [Example 9, 5-Isopropyl-7,7-dimethyl-2-(4,5,6,7-tetrahydro-1H-indazol-3-yl)-5,7-dihydro-3H-imidazo[4,5-f]indol-6-one]
IC50 [1]: 12 nM | IC50 [2]: 108 nM

CCN1C(=O)C(C)(C)c2cc3nc(-c4n[nH]c5c4COCC5)[nH]c3cc21 [Example 11, 5-Ethyl-7,7-dimethyl-2-(1,4,6,7-tetrahydro-pyrano[4,3-c]pyrazol-3-yl)-5,7-dihydro-3H-imidazo[4,5-f]indol-6-one]
IC50 [1]: 16 nM | IC50 [2]: 100 to 2000 nM
